Here are results for four compounds from paper PMC4208661, “SGLT2 inhibitors act from the extracellular surface of the cell membrane” (Physiological Reports, 2014).

Data set [1] deals with hSGLT2 over hSGLT1. Set-up: method as in Nomura et al. [2010]. Particulars: from IC50; ref Nomura et al. [2010]; cited from earlier work.
Data set [2] concerns the target T1, hSGLT2 (Homo sapiens, UniProt P31639).
T1 sequence (P31639 1-672): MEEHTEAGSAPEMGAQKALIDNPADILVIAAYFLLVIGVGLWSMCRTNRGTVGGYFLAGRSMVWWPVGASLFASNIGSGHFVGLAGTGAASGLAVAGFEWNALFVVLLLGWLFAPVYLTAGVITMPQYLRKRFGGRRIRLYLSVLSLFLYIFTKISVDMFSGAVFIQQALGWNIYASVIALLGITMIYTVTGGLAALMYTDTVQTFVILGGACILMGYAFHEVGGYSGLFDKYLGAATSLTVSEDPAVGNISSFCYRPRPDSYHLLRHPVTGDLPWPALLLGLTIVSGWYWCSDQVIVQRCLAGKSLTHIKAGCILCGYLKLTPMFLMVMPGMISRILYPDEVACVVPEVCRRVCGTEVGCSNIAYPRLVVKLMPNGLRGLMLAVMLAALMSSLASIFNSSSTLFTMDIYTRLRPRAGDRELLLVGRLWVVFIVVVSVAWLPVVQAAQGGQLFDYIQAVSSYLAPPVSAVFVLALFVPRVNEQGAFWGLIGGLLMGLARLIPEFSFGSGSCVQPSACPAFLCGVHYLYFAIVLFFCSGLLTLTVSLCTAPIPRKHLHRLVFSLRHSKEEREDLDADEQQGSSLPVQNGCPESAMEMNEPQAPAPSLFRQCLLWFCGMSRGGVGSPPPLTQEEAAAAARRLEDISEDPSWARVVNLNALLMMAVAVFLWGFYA
The arrangement: method as in Koga et al. [2013]. Particulars: ref Koga et al. [2013], cited from earlier work.

On the set-up of data set [3]: method as in Koga et al. [2013]. Particulars: ref Koga et al. [2013]; cited from earlier work.
The target of data set [4] is T2, hSGLT1 (Homo sapiens, UniProt P13866).
T2 sequence (P13866 1-664): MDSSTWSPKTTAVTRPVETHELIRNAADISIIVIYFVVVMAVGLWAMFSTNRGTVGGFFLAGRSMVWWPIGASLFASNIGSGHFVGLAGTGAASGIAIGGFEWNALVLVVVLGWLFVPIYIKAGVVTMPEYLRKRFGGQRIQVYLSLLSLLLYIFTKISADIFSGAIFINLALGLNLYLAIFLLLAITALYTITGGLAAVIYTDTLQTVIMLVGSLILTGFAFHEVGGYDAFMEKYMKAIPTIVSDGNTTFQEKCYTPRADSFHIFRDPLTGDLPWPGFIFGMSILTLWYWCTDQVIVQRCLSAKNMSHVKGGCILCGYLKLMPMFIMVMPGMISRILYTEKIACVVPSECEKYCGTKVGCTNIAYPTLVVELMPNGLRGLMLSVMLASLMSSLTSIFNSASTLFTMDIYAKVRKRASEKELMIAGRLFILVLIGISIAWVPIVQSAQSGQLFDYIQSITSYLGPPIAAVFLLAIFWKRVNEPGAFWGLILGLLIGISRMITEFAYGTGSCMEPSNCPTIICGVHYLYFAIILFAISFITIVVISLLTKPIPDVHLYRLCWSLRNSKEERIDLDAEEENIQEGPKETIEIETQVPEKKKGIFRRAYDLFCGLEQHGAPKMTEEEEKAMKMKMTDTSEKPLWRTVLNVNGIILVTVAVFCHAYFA
Conditions: 300 nmol/L TA-3404, 50 μmol/L α-MDG, HEK-293T, 37°C.
Procedure: In brief, cells were incubated for 30 min in 50 μmol/L [^14C]‐α‐Methyl‐D‐glucopyranoside (GE HealthCare Life Sciences, Piscataway, NJ), a specific substrate for SGLTs, and washed in cold Choline buffer three times. The cells were solubilized and a sample was assayed using scintillation counting. Uptake was normalized to total cellular protein. For each tested condition, the sample size was n = 3–4 wells and each experiment was repeated at least twice.

For data set [5], the target named is T2, hSGLT1. As to the kind of experiment: Whole-cell patch clamp, glucose-induced current, extracellular inhibitor, HEK-293T cells expressing hSGLT1. (In patch-clamp work, channel activity is measured electrically.)
Procedure: In brief, 2 days after transfection cells were plated on 12‐mm poly‐L‐lysine‐coated glass coverslips and selected on the basis of fluorescence intensity using a Nikon diaphot epifluorescence microscope (Nikon, Tokyo, Japan). During the experiment cells were kept at the holding potential Vh = −60 mV. […] Currents were filtered at 2 kHz and digitized at 1 kHz.
Glucose currents (IGlu) were obtained by subtracting the baseline current recorded in Na^+ buffer to the total current measured in Na^+ buffer + glucose: [drawing 1]
The inhibition constant (IC50) was determined by measuring the sugar‐dependent steady‐state current or radiotracer uptake as a function of external inhibitor concentration.
The D‐glucose‐coupled current recovery follows an exponential time course with time constant 1/koff and half‐time for recovery (t1/2,off) related to the off rate: [drawing 3]
The ON rate (kon) is calculated from the empirically measured Ki values and koff values: [drawing 4]
To calculate the dissociation constant (koff) we measured the recovery time of SGLT glucose‐induced current when the inhibitor is rapidly removed from the extracellular solution.
Data set [6] has as its target T1, hSGLT2. Put plainly: [14C]-αMDG uptake in HEK-293T cells expressing hSGLT2. Type of data set: cell-based. Set-up: transfected with 1 μg of the vector containing the hSGLT2 or hSGLT1 coding region; expressed in transfected cells; host or cells: HEK-293T. The method, then: Uptake was normalized to total cellular protein.
We decided to use two different approaches due to the fact that hSGLT2 has low expression, yielding small glucose‐induced currents. For radiotracer uptake experiments, tracer entry in the cell is measured over the period of 30 min leading to a higher sensitivity of the method.

Data set [7] concerns the target T1, hSGLT2. As to the kind of experiment: Whole-cell patch clamp, glucose-induced current, extracellular inhibitor, HEK-293T cells expressing hSGLT2. Set-up: transfected with 1 μg of the vector containing the hSGLT2 or hSGLT1 coding region; expressed in transfected cells; host or cells: HEK-293T. Type of data set: cell-based.
Data set [8] addresses T1, hSGLT2. As to the kind of experiment: Whole-cell patch clamp, inward glucose current with inhibitor in the intracellular (pipette) solution, hSGLT2. Type of data set: cell-based. Set-up: transfected with 1 μg of the vector containing the hSGLT2 or hSGLT1 coding region; expressed in transfected cells; host or cells: HEK-293T. An excerpt: (§1) The intracellular NaCl concentration was maintained at either 5 or 150 mmol/L using CsCl to replace NaCl (Fig. 5A and B).

In data set [9] the target is T2, hSGLT1. Put plainly: Whole-cell patch clamp, inward glucose current with inhibitor in the intracellular (pipette) solution, hSGLT1. Set-up: transfected with 1 μg of the vector containing the hSGLT2 or hSGLT1 coding region; expressed in transfected cells; host or cells: HEK-293T. It is filed as cell-based.
From the text: as §1

For data set [10] the following is noted: after 24 h, single clinical oral dose; ref Hummel et al. [2012]; cited from earlier work.
The target in data set [11] is T1, hSGLT2. The arrangement: transfected with 1 μg of the vector containing the hSGLT2 or hSGLT1 coding region; expressed in transfected cells; host or cells: HEK-293T. Particulars: ref Hummel et al. [2011], cited from earlier work.
Data set [12] relates to renal glucose reabsorption. Conditions: cited from earlier work.
Setting [13] is: physiological conditions, HEK293T cells.
[14] abbreviates: ref Chasis et al. [1933], Silverman [1974].

Each structure is given as a SMILES string. Where two headings read alike, the source gives them in different places.

Consider `Cc1ccc([C@@H]2O[C@H](CO)[C@@H](O)[C@H](O)[C@H]2O)cc1Cc1ccc(-c2ccc(F)cc2)s1` [Canagliflozin, canagliflozin], for which, in data set [1], the “selectivity for hSGLT2 over hSGLT1” value was 414 fold.

A word on the IC50: it is the concentration that inhibits the measured activity by half. The Ki is the dissociation constant of the complex between target and ligand, obtained from inhibition or displacement. Read a high Ki as weaker binding. Turning to `OC[C@H]1O[C@@H](c2ccc(Cl)c(Cc3ccc(-c4ccc(F)nc4)s3)c2)[C@H](O)[C@@H](O)[C@@H]1O` [TA‐3404], the IC50 was 2 nM in data set [2] (CHOK1 cells overexpressing hSGLT2, read-out: IC50, Na+-dependent 14C-α-MDG uptake, SGLT2); 300 ± 61 nM in data set [5]; 3.9 ± 2.2 nM in [6] (50 μmol/L [14C]-αMDG, 1-500 nmol/L extracellular TA-3404, HEK-293T, read-out: IC50, [14C]-αMDG uptake, hSGLT2); 2 nM in data set [6] (as stated in the abstract, read-out: IC50, extracellular inhibition of glucose inward SGLT2 transport). The “selectivity for SGLT2 vs. SGLT1” value in [2] (CHOK1 cells, ratio of IC50) is listed as ~ 350 fold. Also, the pharmacokinetic profiles result in data set [3] is “favorable pharmacokinetic profiles”. For the same compound, the urine glucose excretion entry in data set [3] was “increased urine glucose excretion”. Also, the “inhibition of hSGLT1 uptake” value in [4] amounted to 10%. Besides, the Ki in [5] was 150 nM; in data set [6] (from IC50 (IC50 is twice the Ki), extracellular) it was ~2 nM. Besides, the “half-time of recovery of hSGLT1 current (t1/2,off)” value in data set [5] (after removal of inhibitor, n = 5) was 5.4 ± 0.4 s. For the same compound, in data set [5] (from half-time of current recovery), the “koff, hSGLT1” value is 0.2 per sec. In data set [6] (2 nmol/L TA-3404, 50 μmol/L α-MDG, HEK-293T, 37°C), the “inhibition of hSGLT2 sugar uptake” value turned out to be 50%. Also, in data set [6] (HEK-293T), the “affinity of hSGLT2 higher than for hSGLT1” value is given as “about 75 fold”. For the same compound, the “inhibition of glucose-induced inward current, hSGLT2” value in [7] (300 nmol/L extracellular TA-3404, 100 mmol/L glucose, -60 mV, 37°C) was “completely inhibited”. For the same compound, the “half-time of recovery of hSGLT2 current (t1/2,off)” value in [7] (after removal of inhibitor, reversible ~50% component, n = 3) amounted to 17 ± 0.5 s. In data set [7] (calculated from Ki and koff), the “kon, hSGLT2” value was 1.4 × 10^6 mol/L per sec. For the same compound, the “recovery of hSGLT2 current after removing the inhibitor” value in data set [7] (washout, no further recovery over 5 min) is reported as ~ 50%. The “inhibition of inward hSGLT2 Na+/glucose current” value in [8] (200 nmol/L TA-3404 intracellular, 5 mmol/L intracellular Na+, 100 mmol/L glucose, -60 mV) was “did not inhibit”. For the same compound, the “inhibition of inward hSGLT2 glucose current” value in [8] (200 nmol/L TA-3404 intracellular, 150 mmol/L intracellular Na+) was “no significant inhibition”. The “intracellular affinity of hSGLT2 lower than the extracellular affinity” value in data set [8] (intracellular versus extracellular) is recorded as “at least 100”. In data set [8] (low (5 mmol/L) and high (150 mmol/L) intracellular NaCl), the “inhibition of SGLT2 from the intracellular compartment” value is reported as “ineffective”. In addition, in data set [8] (setting [13]), the “inhibition of Na+/glucose currents generated by hSGLT2, inhibitor in the cytoplasm” value is recorded as “does not inhibit”. The “effect on inward hSGLT1 Na+/glucose current” value in [9] (200 nmol/L TA-3404 intracellular, 5 mmol/L NaCl in the pipette, 10 mmol/L glucose) is “no effect”. Further, the “effect on hSGLT1 glucose-induced current” value in [9] (200 nmol/L TA-3404 intracellular, 150 mmol/L Na+ in the pipette) is reported as “did not detect any significant effect”. In data set [9] (setting [13]), the “inhibition of Na+/glucose currents generated by hSGLT1, inhibitor in the cytoplasm” value is “does not inhibit”.

As for `CCOc1ccc(Cc2cc([C@@H]3O[C@H](CO)[C@@H](O)[C@H](O)[C@H]3O)ccc2Cl)cc1` [dapagliflozin], the free plasma concentration in data set [10] was 25 nM. Further, the “Off rate of binding to hSGLT2” value in data set [11] was “very slow Off rate”.

As for `O=C(CCc1ccc(O)cc1)c1c(O)cc(O)cc1O[C@@H]1O[C@H](CO)[C@@H](O)[C@H](O)[C@H]1O` [phlorizin], in [12] (setting [14]), the glomerular filtration entry is “freely filtered” and the glucose reabsorption entry was “completely blocks glucose reabsorption”. Moreover, in data set [12] (ref Silverman [1974]), the route of excretion result is “mainly excreted into the urine”. In data set [6] (100 μmol/L phlorizin, 50 μmol/L α-MDG, HEK-293T), the “effect on sugar uptake by hSGLT2” value was “to the level observed in untransfected cells”. The “Off rate, hSGLT2” value in data set [11] (phlorizin) is listed as 0.3 per sec. Besides, the “half-time of recovery of hSGLT2 current (t1/2,off)” value in data set [11] was 24 s.
